# Patent US5141735A (priority 1990, dated 1992)
# pIC50: −log10 of the molar value. Where two headings read alike, the source gives them in different places.
# Legend:
# viremia = conditions: cited from earlier work
# [1] = tested on: HIV-1-infected CEM-cells (strain N1T); assay: Anti-HIV effect: reduction of immunofluorescence-positive CEM cells (cell-associated viral antigens); format: cell-based
# Protocol: (§1) Compounds were tested directly for their anti-HIV effect. The assay protocols for the inhibition of HIV-cytopathic effect and the reduction of cell-associated viral antigens were modified from published procedures (Mitsuya, et al. P.N.A.S, USA 83:1911 (1986), and Hedenskog et al., J. Med. Virol. 19:325 (I986)).
# (§2) High titer virus stocks (HIV-1 NIT strain or HIV-2 uc-1 strain) were grown in CD4^+ CR10 cells in RMPI-1640 media (Gibco Laboratories) supplemented with 10% fetal calf serum and 0.1 mg/ml Gentamicin. The collected media were filtered through a 0.8 micron filter and virus isolates were concentrated 100 fold and stored at -80° C.
# (§3) CD4^+ CEM cells, propagated in the same medium, were incubated for 60 minutes at 37° C. with diluted stock virus at a multiplicity of infection equal to 1 (MOI=1, approximately 1 pg p24 or 4,000 viral particles per cell). Cells were washed three times with phosphate buffered saline and resuspended in the medium at 2×10^5 cells/ml. Various quantities of the test compound in DMSO, synthesized as described above were added. Four days after infection, the number of live cells were counted by trypan blue exclusion (Mitsuya, et al. Proc. Natl. Acad. Sci. 83:1911 (1986)). At the same time, aliquots of cells were fixed with acetone and stained with antibodies from AIDS patients, followed by a second staining with fluorescein-conjugated goat anti-human IgG (Cappel). Cells stained with the fluorescent antibody were counted using a fluorescence microscope and the results were expressed as percentage of the total number of cells counted (Hedenskog et al., J. Med. Virol 19:325 (1986)).
# *ID50 (μM) is the concentration of test compound that reduces the
# number of immunofluorescence positive cells by 50%.
# HIV-1-infected CEM-cells = assay: Inhibition of HIV-cytopathic effect: live cell count by trypan blue exclusion; format: cell-based
# Protocol: as §1, §2, §3
# viral p24 antigen = assay: Viral p24 antigen in culture media measured by ELISA; format: cell-based, HIV; conditions: acutely infected CEM cells, FIG. 2
# Protocol: As an additional measure of anti-HIV activity, the amount of p24 antigen in the culture media was measured by ELISA (Abbott) according to the procedure described by the manufacturer. This measurement is an indication of HIV virus replication.
# viral RNA = assay: Cell-associated viral RNA by RNA-RNA hybridization/reversible target capture; format: cell-based, HIV; conditions: acutely infected CEM cells, FIG. 2
# Protocol: In addition, the viral RNA in infected cells was quantified with an RNA-RNA hybridization/reversible target capture procedure [Gillespie et al. Molecular and Cellular Probes, 2:73 (1989)]. Reagents were purchased from GeneTrack System (MA, USA) and assays were carried out according to the procedure described by the manufacturers. 2×10^5 live cells, determined by trypan blue exclusion, were used in each assay.
# HIV-TAT [2] = assay: Anti-HIV-TAT transfection assay (SeAP under HIV-LTR vs RSV-LTR in COS cells); format: cell-based; conditions: 1-50 μM; HIV-LTR/SeAP relative to RSV-LTR/SeAP; added 24 hours post transfection; average of at least three tests
# Protocol: The compounds of the present invention were also tested for anti-HIV-TAT activity in an anti-TAT assay described in co-pending patent application U.S. Ser. No. 07/428,555, filed on Oct. 30, 1989, and hereby incorporated by reference. This assay comprises the following steps:
# (a) putting both the expression of the Secreted Alkaline Phosphatase (SeAP) gene and the viral transactivator TAT gene under the control of the HIV promoter LTR responsive to the action of the HIV transactivator TAT;
# (b) transfecting cultured mammalian cells with plasmids which contain the gene constructs of (a) above and cause cellular production of the transactivating factor TAT and SeAP;
# (c) adding the agent to be tested, here compounds of formula I; and
# (d) determining the amount of SeAP produced by measuring SeAP enzymatic activity, whereby inhibition of SeAP production correlates with the anti-TAT inhibition activity.
# In this assay, the inhibition of SeAP positively correlates with anti-TAT activity. The greater the ability of an agent to inhibit SeAP, the greater is its anti-TAT activity.
# Specifically, with respect to the results reported below, the anti-HIV-TAT assay was run as follows: […]
# determined by measuring the amount of alkaline phosphatase in […]
# calculated according to the formula: […]
# HIV-TAT [3] = assay: Anti-HIV-TAT activity in CHO-derived cell lines constitutively expressing SeAP under HIV-LTR; format: cell-based; conditions: FIG. 4
# Protocol: (§4) Compounds of formula I were also tested for anti-HIV-TAT activity with cell lines that constitutively express the SeAP gene under the control of the HIV-LTR. Cell lines 193c, 191F and 199F were derived from CHO cells (cell line of Chinese hamster ovary origin). Each line is of clonal origin and has the HIV-LTR/SeAP and the HIV-LTR/TAT sequences integrated in the cellular chromosome. One day after cells were plated (approximately 30% confluency), a compound of formula I in DMSO (0.05% final concentration) was added to the culture media at desired concentrations. The cells were washed and Compound A was replenished one day later. SeAP activity was assayed two days after the second addition of test compound. The cytotoxic effect of the compound was measured with a MTT assay, an art-recognized measurement of cytotoxicity. See Denigot et al., J. Immunol. Methods 89:271 (1986). This assay also confirmed the specific anti-TAT activity of applicants' compounds.
# [4] = tested on: Cell lines 193c, 191F and 199F; assay: Cytotoxicity by MTT assay in CHO-derived cell lines 193c, 191F and 199F; format: cell-based, Chinese hamster; conditions: FIG. 4
# Protocol: The Y-axis is (1) the percent inhibition in TAT transactivation measured according to SeAP activity in culture media (discussed infra), and (2) a measurement of cytotoxicity based on an MTT assay. The MTT assay is a known tetrazolium-based assay which measures the viability of cells. The X-axis is the concentration of compound. The solid circles, diamonds and squares represent the three different cell lines identified at the bottom of the Figure.
# as §4, with “This assay also confirmed the specific anti-TAT activity of applicants' compounds.” left out
# HIV = conditions: body weight; cited from earlier work
# [5] = Human immunodeficiency virus 1, CCRF-CEM, 96 h, concentration that reduces the number of immunofluorescence positive cells by 50%, Table I, read-out: Anti-HIV ID50
structure (smiles),measurement,setting,value
Cc1cn([C@H]2C[C@H](N=[N+]=[N-])[C@@H](CO)O2)c(=O)[nH]c1=O [AZT],elimination of viremia in patients,viremia,does not eliminate viremia in patients
same,drug resistance,viremia; patients,eventually the appearance of drug-resistant mutant viruses is evidenced
"CNC1=Nc2ccc(Cl)cc2C(c2ccc[nH]2)=NC1 [Compound A, 7-chloro-N-methyl-5-(1H-pyrrol-2-yl)-3H-1,4-benzodiazepin-2-amine]",pIC50,"[1]; Human immunodeficiency virus 1, CCRF-CEM, 96 h, FIG. 1, HIV-1-infected CEM-cells (strain N1T), read-out: ID50 (the source's name)",6.30
same,IC90,"[1]; Human immunodeficiency virus 1, CCRF-CEM, 96 h, FIG. 1, HIV-1-infected CEM-cells (strain N1T), read-out: ID90 (the source's name)",1 µM
same,pIC50,[1]; [5],6.00 to 6.30
same,percentage of cells that are immunofluorescence-positive following staining with HIV antibodies,"[1]; increasing amounts of compound, FIG. 1",decline in the percentage of cells that are immunofluorescence-positive
same,survival rate for the HIV-infected cells,"HIV-1-infected CEM-cells; 5 μM, FIG. 1, HIV-1-infected CEM-cells",very close to that of uninfected cells
same,survival of HIV-infected cells with increasing concentrations,HIV-1-infected CEM-cells; FIG. 1,greater survival of HIV-infected cells
same,cell survival in comparison to AZT or ddC,"HIV-1-infected CEM-cells; acutely infected CEM cells, FIG. 2","at least similar, and at several compound concentrations, better, cell survival than AZT or ddC"
same,amount of viral p24 antigen,viral p24 antigen,dramatically reduces
same,amount of cell-associated viral RNA,viral RNA,dramatically reduces
same,Anti-HIV-TAT Activity (% Inhibition),HIV-TAT [2],> 60%
same,inhibition of SeAP expression under the control of the HIV-LTR promoter,HIV-TAT [3],significantly inhibits SeAP expression
same,cytotoxic effect on the cells,[4],no cytotoxic effect on the cells
"NC1=Nc2ccc(Cl)cc2C(c2ccc[nH]2)=NC1 [NH2, 7-chloro-5-(1H-pyrrol-2-yl)-3H-1,4-benzodiazepin-2-amine]",pIC50,[1]; [5],6.00
same,Anti-HIV-TAT Activity (% Inhibition),HIV-TAT [2],> 60%
Nc1ccn([C@H]2CC[C@@H](CO)O2)c(=O)n1 [ddC],virustatic dose range in most patients,HIV,5 to 250 µg/kg
